Converted amounts (≈) assume the structure as drawn.
Assays:
NAMALVA = test: Antiproliferative activity against human NAMALWA cells assessed as reduction in cell viability measured after 48 hrs by MTT assay; assay type: functional, cell-based; conditions: Homo sapiens, NAMALVA, 48 h
A-375 = test: Antiproliferative activity against human A375 cells assessed as reduction in cell viability measured after 48 hrs by MTT assay; assay type: functional, cell-based; conditions: Homo sapiens, A-375, 48 h
A549 = test: Antiproliferative activity against human A549 cells assessed as reduction in cell viability measured after 48 hrs by MTT assay; assay type: functional, cell-based; conditions: Homo sapiens, A549, 48 h
[1] = Solubility of the compound in PBS; assay type: physicochemical
MCF7 = test: Antiproliferative activity against human MCF7 cells assessed as reduction in cell viability measured after 48 hrs by MTT assay; assay type: functional, cell-based; conditions: Homo sapiens, MCF7, 48 h
HeLa = test: Antiproliferative activity against human HeLa cells assessed as reduction in cell viability measured after 48 hrs by MTT assay; assay type: functional, cell-based; conditions: Homo sapiens, HeLa, 48 h
Raji = test: Antiproliferative activity against human Raji cells assessed as reduction in cell viability measured after 48 hrs by MTT assay; assay type: functional, cell-based; conditions: Homo sapiens, Raji, 48 h
[2] = target: Dihydroorotate dehydrogenase (quinone), mitochondrial (Homo sapiens, UniProt Q02127); test: Inhibition of human DHODH using dihydroorotate as substrate and CoQ10 as co-substrate preincubated for 30 mins followed by substrate addition by DCIP coupled microplate reader assay
Sequence of Dihydroorotate dehydrogenase (quinone), mitochondrial (Q02127 whole entry): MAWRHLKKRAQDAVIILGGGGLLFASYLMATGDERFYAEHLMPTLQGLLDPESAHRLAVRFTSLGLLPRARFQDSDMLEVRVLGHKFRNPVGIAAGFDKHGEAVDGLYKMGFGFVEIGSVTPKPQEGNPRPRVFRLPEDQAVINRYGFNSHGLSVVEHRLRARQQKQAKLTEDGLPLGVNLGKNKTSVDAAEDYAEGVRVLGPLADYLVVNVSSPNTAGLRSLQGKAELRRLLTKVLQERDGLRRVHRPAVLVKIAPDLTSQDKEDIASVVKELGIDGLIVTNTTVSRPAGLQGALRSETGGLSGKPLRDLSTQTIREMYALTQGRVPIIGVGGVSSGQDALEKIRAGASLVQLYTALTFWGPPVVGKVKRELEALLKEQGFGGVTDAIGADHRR

HCT-116 = test: Antiproliferative activity against human HCT116 cells assessed as reduction in cell viability measured after 48 hrs by MTT assay; assay type: functional, cell-based; conditions: Homo sapiens, HCT-116, 48 h
K562 = test: Antiproliferative activity against human K562 cells assessed as reduction in cell viability measured after 48 hrs by MTT assay; assay type: functional, cell-based; conditions: Homo sapiens, K562, 48 h

Row | IC50 (A-375) [nM] | IC50 (A549) [nM] | solubility [1] [µg/mL] | IC50 (MCF7) [nM] | IC50 (HeLa) [nM] | IC50 (Raji) [nM] | IC50 [2] [nM] | IC50 (HCT-116) [nM] | IC50 (K562) [nM] | Structure (SMILES) | IC50 (NAMALVA) [nM]
1 | 20 | > 10000 | < 10 | > 10000 | 2020 | 2150 | 0.5 | 410 | > 10000 | CN(C)c1cccc(-c2c(F)cc(-n3nnc4c3C(=O)c3ccccc3C4=O)cc2F)c1 | > 10000
2 | 160 | > 10000 | < 10 | > 10000 | > 10000 | > 10000 | 5.1 | 580 | > 10000 | OC1c2ccccc2C(O)c2c1nnn2-c1cc(F)c(-c2ccccc2F)c(F)c1 (stereo not drawn) | > 10000
3 | 30 | > 10000 | 14.6 (≈ 35 µM) | > 10000 | > 10000 | 3310 | 1.2 | 2210 | > 10000 | O=C1c2ccccc2C(=O)c2c1nnn2-c1cc(F)c(-c2cccc(CO)c2)c(F)c1 | > 10000
4 | – | – | – | – | – | – | > 1000 | – | – | CC(C)c1ccc(-c2ccc(-n3nnc4c3C(=O)c3ccccc3C4=O)c(F)c2)cc1 | –
5 | – | – | – | – | – | – | > 1000 | – | – | N#Cc1ccccc1-n1nnc2c1C(=O)c1ccccc1C2=O | –
6 | – | – | – | – | – | – | 98 | – | – | O=C1c2cc(F)ccc2C(=O)c2c1nnn2-c1cc(F)c(-c2ccccc2F)c(F)c1 | –
7 | – | – | – | – | – | – | > 1000 | – | – | Cc1cc(-c2ccc(-n3nnc4c3C(=O)c3ccccc3C4=O)cc2)ccn1 | –
8 | – | – | – | – | – | – | > 1000 | – | – | O=C1c2ccccc2C(=O)c2c1nnn2-c1ccc(N2CCOCC2)nc1 | –
9 | – | – | – | – | – | – | > 1000 | – | – | Fc1ccccc1-c1c(F)cc(-n2cc(-c3ccccc3)nn2)cc1F | –
10 | – | – | – | – | – | – | > 1000 | – | – | CC(C)c1ccc(-c2cc(F)c(-n3nnc4c3C(=O)c3ccccc3C4=O)c(F)c2)cc1 | –
11 | – | – | – | – | – | – | > 1000 | – | – | O=C1c2ccc(O)cc2C(=O)c2c1nnn2-c1cc(F)c(-c2ccccc2F)c(F)c1 | –
12 | – | – | – | – | – | – | 422 | – | – | O=C1c2ccccc2C(=O)c2c1nnn2-c1ccc(-c2cccnc2)cc1 | –
13 | – | – | – | – | – | – | > 1000 | – | – | O=C1c2ccccc2C(=O)c2c1nnn2-c1ccc(-c2ccncc2)cc1 | –
14 | – | – | – | – | – | – | > 1000 | – | – | COc1ccc2c(c1)C(=O)c1c(nnn1-c1cc(F)c(-c3ccccc3F)c(F)c1)C2=O | –
15 | 250 | > 10000 | < 10 | > 10000 | > 10000 | 1360 | 3.1 | 880 | > 10000 | Nc1cccc(-c2ccc(-n3nnc4c3C(=O)c3ccccc3C4=O)cc2)c1 | > 10000
16 | 2980 | > 10000 | < 10 | > 10000 | > 10000 | 2230 | 4.5 | 3330 | 1870 | O=C1c2ccccc2C(=O)c2c1nnn2-c1ccc(-c2ccccc2F)cc1 | 2790
17 | 30 | > 10000 | 17.6 (≈ 40.4 µM) | > 10000 | > 10000 | > 10000 | 1.2 | 150 | > 10000 | O=C1c2ccccc2C(=O)c2c1nnn2-c1cc(F)c(-c2cccc(CO)c2F)c(F)c1 | > 10000
18 | – | – | – | – | – | – | 100 | – | – | COc1cccc(-c2ccc(-n3nnc4c3C(=O)c3ccccc3C4=O)cc2)c1 | –
19 | – | – | – | – | – | – | > 1000 | – | – | O=C1c2ccccc2C(=O)c2c1nnn2-c1ccccc1C(F)(F)F | –
20 | – | – | – | – | – | – | 230 | – | – | O=C1c2ccccc2C(=O)c2c1nnn2-c1ccc(-c2ccccc2O)cc1 | –
21 | – | – | – | – | – | – | > 1000 | – | – | O=C1c2ccccc2C(=O)c2c1nnn2-c1ccncc1 | –
22 | – | – | – | – | – | – | > 1000 | – | – | N#Cc1cccc(-n2nnc3c2C(=O)c2ccccc2C3=O)c1 | –
23 | – | – | – | – | – | – | > 1000 | – | – | COc1cc(-c2ccc(-n3nnc4c3C(=O)c3ccccc3C4=O)cc2)cc(OC)c1OC | –
24 | – | – | – | – | – | – | > 1000 | – | – | O=C1c2ccccc2C(=O)c2c1nnn2-c1ccnc(Cl)c1 | –
25 | 1930 | > 10000 | – | > 10000 | > 10000 | 3840 | 20 | 2300 | 2160 | Nc1ccccc1-c1ccc(-n2nnc3c2C(=O)c2ccccc2C3=O)cc1 | 5050
26 | > 10000 | > 10000 | – | > 10000 | > 10000 | 9040 | 21 | > 10000 | 7090 | O=C1c2ccccc2C(=O)c2c1nnn2-c1ccc(-c2cccc(O)c2)cc1 | > 10000
27 | – | – | – | – | – | – | > 1000 | – | – | Cc1cc(-n2nnc3c2C(=O)c2ccccc2C3=O)ccc1F | –
28 | – | – | – | – | – | – | > 1000 | – | – | COc1ccc2c(c1)C(=O)c1nnn(-c3cc(F)c(-c4ccccc4F)c(F)c3)c1C2=O | –
29 | 420 | > 10000 | < 10 | > 10000 | > 10000 | 3760 | 4.6 | 1610 | 2410 | COC(=O)Cc1cccc(-c2c(F)cc(-n3nnc4c3C(=O)c3ccccc3C4=O)cc2F)c1 | > 10000

Source: ChEMBL document CHEMBL4616673 (J Med Chem, 2020)
